“Also recorded” adds a separate entry of the source.
Experiments:
[1] = system: duration of xylazine/ketamine-induced anesthesia; experiment: Xylazine/ketamine-induced anesthesia; conditions: 10~100 μmol/kg s.c., 1 h before anesthesia
Protocol: After loss of the righting reflex (i.e., when a mouse remained on its back and no longer spontaneously righted itself to a prone position), the duration of anesthesia was measured until its return as the endpoint.

[2] = system: ovalbumin-induced airway hyperresponsiveness; experiment: Airway hyperresponsiveness, barometric plethysmography (Penh) in OVA-sensitized and challenged mice; format: in vivo, BABL/c mice
Protocol: According to the schedule (Figure 1), ten female BABL/c mice in each group were sensitized by an intraperitoneal (i.p.) injection of 20 μg of OVA emulsified in 2.25 mg of an aluminum hydroxide gel, prepared from aluminum sulfate hexadecahydrate, in a total volume of 100 μl on days 0 and 14. On day 21, these mice were injected with (i.p.) 100 μl of a mixture of 1% OVA and Freund's complete adjuvant (1:1). Mice were challenged via the airway using 1% OVA in saline for 30 min on days 28, 29, and 30 by ultrasonic nebulization. After the last of OVA challenges, AHR was assessed on day 32 (48 h after 1% OVA provocation) in each group. […] For comparison, sham-treated mice were challenged with saline instead of 1% OVA (non-challenged). […] AHR was assessed using two methods: (1) in anesthetized ventilated mice, AHR was assessed as previously described by measuring changes in the airway resistance (RL, cmH2O/ml/sec) and lung dynamic compliance (Cdyn, ml/cmH2O) after challenge with aerosolized methacholine (MCh, 0.78~25 mg/ml) using the FlexiVent system (SCIREQ, Montreal, Quebec, Canada). Anesthetized (urethane 600 mg/kg and chloralose 120 mg/kg, i.p.), tracheostomized (stainless-steel cannula, 18 G) mice were mechanically ventilated (at 150 breaths/min, with a tidal volume of 10 ml/kg, positive end-expiratory pressure of 3 cmH2O). (2) in unrestrained animals by barometric plethysmography using a whole-body plethysmograph (WBP) and analyzed using software of Life Science Suite P3 Analysis Modules (Gould, LDS Test and Measurement LLC, Valley View, OH, USA). Mice were placed into the main chamber of the WBP, and the baseline enhanced pause (Penh) value was determined.

[3] = system: inflammatory cells in bronchoalveolar lavage fluid; experiment: Inflammatory cell counts in BALF of sensitized and challenged mice; format: in vivo, BABL/c mice; conditions: 3~30 μmol/kg p.o.
Protocol: According to the schedule (Figure 1), ten female BABL/c mice in each group were sensitized by an intraperitoneal (i.p.) injection of 20 μg of OVA emulsified in 2.25 mg of an aluminum hydroxide gel, prepared from aluminum sulfate hexadecahydrate, in a total volume of 100 μl on days 0 and 14. On day 21, these mice were injected with (i.p.) 100 μl of a mixture of 1% OVA and Freund's complete adjuvant (1:1). Mice were challenged via the airway using 1% OVA in saline for 30 min on days 28, 29, and 30 by ultrasonic nebulization. After the last of OVA challenges, AHR was assessed on day 32 (48 h after 1% OVA provocation) in each group. […] For comparison, sham-treated mice were challenged with saline instead of 1% OVA (non-challenged). […] AHR was assessed using two methods: (1) in anesthetized ventilated mice, AHR was assessed as previously described by measuring changes in the airway resistance (RL, cmH2O/ml/sec) and lung dynamic compliance (Cdyn, ml/cmH2O) after challenge with aerosolized methacholine (MCh, 0.78~25 mg/ml) using the FlexiVent system (SCIREQ, Montreal, Quebec, Canada). Anesthetized (urethane 600 mg/kg and chloralose 120 mg/kg, i.p.), tracheostomized (stainless-steel cannula, 18 G) mice were mechanically ventilated (at 150 breaths/min, with a tidal volume of 10 ml/kg, positive end-expiratory pressure of 3 cmH2O). (2) in unrestrained animals by barometric plethysmography using a whole-body plethysmograph (WBP) and analyzed using software of Life Science Suite P3 Analysis Modules (Gould, LDS Test and Measurement LLC, Valley View, OH, USA). Mice were placed into the main chamber of the WBP, and the baseline enhanced pause (Penh) value was determined. […] Twenty-four hours after Penh determination, these mice were anesthetized with pentobarbital (50 mg/kg, i.p.), and the lungs were lavaged via a tracheal tube with PBS (1 × 1.0 ml, 37°C). After lavage, blood was collected from the jugular vein and allowed to sit so that it would coagulate. The collected bronchoalveolar lavage fluid (BALF) and coagulated blood were respectively centrifuged at 630 g for 7 min and at 3700 g for 10 min at 4°C. After centrifugation, the BALF and serum supernatants were stored at -20°C until determination of cytokines, including interleukin (IL)-2, IL-4, IL-5, tumor necrosis factor (TNF)-α, and interferon (IFN)-γ by flow cytometric methods using mouse T helper (Th)1/Th2 cytokine CBA kits, and of total immunoglobulin (Ig)E or IgG2a using ELISA kits (Pharmingen, San Diego, CA, USA) according to the respective recommendations of the manufacturers. OVA-specific IgE was measured as described previously. Wells were coated with 100 μl of OVA (20 μg/ml) instead of the capture antibody. Levels are expressed in arbitrary units, where 1 arbitrary unit equals the optical density of the sample divided by the optical density of unchallenged mouse serum or BALF (standard). The BALF pellet was resuspended in ACK lysing buffer (1.658 g NH4Cl, 0.2 g KHCO3 and 1.44 mg EDTA in 200 ml of water) to lyse the residual erythrocytes in each sample. The number of inflammatory cells was counted using a hemocytometer (Hausser Scientific, Horsham, PA, USA). Cytospun slides were stained and differentiated in a blinded fashion by counting at least 100 cells under light microscopy. All undetectable data (< 1 pg/ml) of cytokines were taken as 0 pg/ml.

COc1cc(O)c2c(c1)O[C@H](c1ccc(OC)c(OC)c1)CC2=O [HDME, hesperetin-7,3'-O-dimethylether]
effect on duration of xylazine/ketamine-induced anesthesia [1]: did not significantly influnce
Penh value at the baseline ([2]; 3 μmol/kg p.o.): 2.45 ± 0.04
Penh value with PBS nebulization ([2]; 3 μmol/kg p.o.): 2.43 ± 0.05
Penh value at the baseline ([2]; 10 μmol/kg p.o.): 2.36 ± 0.05
Penh value with PBS nebulization ([2]; 10 μmol/kg p.o.): 2.38 ± 0.06
Penh value at the baseline ([2]; 30 μmol/kg p.o.): 2.43 ± 0.03
Penh value with PBS nebulization ([2]; 30 μmol/kg p.o.): 2.44 ± 0.06
effect on enhancement of Penh values induced by MCh ([2]; 3~30 μmol/kg p.o., 25 and 50 mg/ml MCh): dose-dependently and significantly attenuated
effect on increase in number of eosinophils in BALF [3]: significantly suppressed; also recorded: abolished
effect on increase in number of lymphocytes in BALF [3]: significantly suppressed
effect on increase in number of macrophages in BALF [3]: significantly suppressed
effect on increase in number of neutrophils in BALF [3]: significantly suppressed
effect on increase in number of total inflammatory cells in BALF [3]: significantly suppressed

— PMC3225327 (Journal of Biomedical Science, 2011)
